Measured values as given in doi:10.1101/2020.09.29.318170v1 (biorxiv, 2020).
Blank lines part the entries; values can stand above or below the compound they belong to.

Columns and labels:
Format in all cases: biochemical
Pd32 (with PdPP2C55) = target: T1, Pd32 (with PdPP2C55) (Phoenix dactylifera, UniProt A0A8B7C461); assay: phosphopeptide phosphatase inhibition assay; details: read-out: % inhibition of PdPP2C55 at 10 μM ABA
T1 sequence (A0A8B7C461 1-202): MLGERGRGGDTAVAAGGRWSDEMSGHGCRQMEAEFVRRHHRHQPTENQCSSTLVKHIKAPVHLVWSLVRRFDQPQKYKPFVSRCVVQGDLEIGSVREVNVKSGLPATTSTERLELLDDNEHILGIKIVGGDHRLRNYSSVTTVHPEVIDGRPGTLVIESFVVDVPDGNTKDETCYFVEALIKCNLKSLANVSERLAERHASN

Pd32 (with PdPP2C79) = target: T2, Pd32 (with PdPP2C79) (Phoenix dactylifera, UniProt A0A8B7C461); assay: phosphopeptide phosphatase inhibition assay; details: read-out: % inhibition of PdPP2C79 at 10 μM ABA
T2 sequence (A0A8B7C461 1-202): T1 sequence (A0A8B7C461 1-202)

Pd27 (with ΔNHAB1) = target: T3, Pd27 (with ΔNHAB1) (Phoenix dactylifera, UniProt A0A8B7BJV2); assay: pNPP phosphatase inhibition assay
T3 sequence (A0A8B7BJV2 1-205): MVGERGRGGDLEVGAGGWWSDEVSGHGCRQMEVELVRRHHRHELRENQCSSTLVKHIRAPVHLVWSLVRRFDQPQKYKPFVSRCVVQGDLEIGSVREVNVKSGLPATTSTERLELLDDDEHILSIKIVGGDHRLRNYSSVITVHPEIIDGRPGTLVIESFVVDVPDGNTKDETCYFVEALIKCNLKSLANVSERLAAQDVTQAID
T3 sequence (Q9CAJ0 179-511 partner limits assumed): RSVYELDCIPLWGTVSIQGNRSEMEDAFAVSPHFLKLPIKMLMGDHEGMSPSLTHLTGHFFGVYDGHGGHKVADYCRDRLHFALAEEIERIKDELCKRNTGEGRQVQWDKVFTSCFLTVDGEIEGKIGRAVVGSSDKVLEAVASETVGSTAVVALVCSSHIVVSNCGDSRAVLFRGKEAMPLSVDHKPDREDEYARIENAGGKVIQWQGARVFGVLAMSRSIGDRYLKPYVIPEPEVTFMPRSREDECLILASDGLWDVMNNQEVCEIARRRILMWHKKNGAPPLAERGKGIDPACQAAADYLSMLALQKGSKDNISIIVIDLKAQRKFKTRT

Pd957 (with ΔNHAB1) = target: T4, Pd957 (with ΔNHAB1) (Phoenix dactylifera, UniProt A0A8B7BRF0); assay: pNPP phosphatase inhibition assay; details: read-out: % inhibition of HAB1 at 10 μM
T4 sequence (A0A8B7BRF0 1-215): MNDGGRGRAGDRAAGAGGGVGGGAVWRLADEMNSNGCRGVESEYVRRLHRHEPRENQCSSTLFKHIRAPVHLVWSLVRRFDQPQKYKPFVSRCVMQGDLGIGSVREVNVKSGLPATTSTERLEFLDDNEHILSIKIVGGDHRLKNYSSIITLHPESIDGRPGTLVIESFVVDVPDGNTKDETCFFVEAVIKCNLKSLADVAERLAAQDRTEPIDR
T4 sequence (Q9CAJ0 179-511 partner limits assumed): T3 sequence (Q9CAJ0 179-511 partner limits assumed)

inhibition at 10 µM (Pd32 (with PdPP2C55)): 80%
inhibition at 10 µM (Pd32 (with PdPP2C79)): 30%
Compound: CC1=CC(=O)CC(C)(C)[C@@]1(O)/C=C/C(C)=C\C(=O)O [ABA]

% inhibition of HAB1 at 10 μM (Pd27 (with ΔNHAB1); 10 μM agonist, 1 μM ΔNHAB1, 2 μM receptor, 15 mM pNPP, receptor agonist): 80%
Compound: CCCN1C(=O)CCc2cc(NS(=O)(=O)Cc3c(F)c(F)c(C)c(F)c3F)ccc21 [AMF4]

inhibition at 10 µM (Pd27 (with ΔNHAB1); read-out: % inhibition of HAB1 at 10 μM): 80%
inhibition at 10 µM (Pd957 (with ΔNHAB1)): 20 to 30%
Compound: CCCN1C(=O)CCc2cc(NS(=O)(=O)Cc3ccc(C)cc3)ccc21 [quinabactin]
